Data reported in BindingDB's records for doi:10.1021/jm980511k (Research Triangle Institute, 1999).
pKi: −log10 of the molar value.

Columns and labels:
[1] = Binding affinity determined on Opioid receptor delta 1 in Guinea pig brain membranes using radioligand [3H]DADLE
[2] = Inhibition of [35S]GTP-gamma-S, binding from Opioid receptor delta 1 in Guinea pig Caudate stimulated by SNC80

Structure (SMILES)	pKi [1]	pKi [2]
CC(C)[C@@H](CN1CC[C@@](C)(c2cccc(O)c2)[C@@H](C)C1)NC(=O)CCc1ccc(O)cc1 [3-(4-Hydroxy-phenyl)-N-{1-[4-(3-hydroxy-phenyl)-3,4-dimethyl-piperidin-1-ylmethyl]-2-methyl-propyl}-propionamide]	< 5.24	–
C[C@@H]1CN(C/C=C/c2ccccc2)CC[C@]1(C)c1cccc(O)c1 [3-[(3S,4S)-3,4-Dimethyl-1-((E)-3-phenyl-allyl)-piperidin-4-yl]-phenol]	6.49	8.82
